Earlier results on 1 molecule are cited in PMC8828969, “Arylamine N-Acetyltransferase 1 Activity is Regulated by the Protein Acetylation Status” (Frontiers in Pharmacology, 2022).

The data set concerns NAT1. More on the design: method as in Butcher et al., 2020. The note with it: ref Butcher et al., 2020; cited from earlier work.

For the molecule `NC(=O)c1cccnc1` [nicotinamide], the “acetylation of NAT1” value was “enhanced”.
